Values quoted from earlier work as cited in patent US20070025945A1, “Stabilized pharmaceutical and cosmetic composition of catechins or derivatives thereof” (Anagen Therapeutics, Inc., priority 2005, published 2007).

Key:
[1] = test system: 5-alpha-reductase isozyme I / isozyme II; conditions: 5-alpha-reductase isozymes
[2] = test system: teleocidin-induced tumor promotion; conditions: topically applied to skin; mice previously initiated with DMBA
[3] = test system: sebum production; conditions: topical application directly to the forehead

Row | Compound | activity against isozyme I versus isozyme II [1] | teleocidin-induced tumor promotion [2] | sebum production from the human forehead [3]
1 | O=C(O[C@@H]1Cc2c(O)cc(O)cc2O[C@@H]1c1ccc(O)c(O)c1)c1cc(O)c(O)c(O)c1 [ECG, (−)-epicatechin-3-gallates] | more active against isozyme I than isozyme II | – | –
2 | O=C(O[C@@H]1Cc2c(O)cc(O)cc2O[C@@H]1c1cc(O)c(O)c(O)c1)c1cc(O)c(O)c(O)c1 [EGCG, (−)-epigallocatechin-3-gallates] | more active against isozyme I than isozyme II | inhibits | inhibited
3 | CCCCC/C=C\C/C=C\C/C=C\CCCCC(=O)O [gamma-linolenic acid] | – | – | inhibited
